Test results reported in article PMC10628895, “Conformationally Selective 2-Aminotetralin Ligands Targeting the alpha2A- and alpha2C-Adrenergic Receptors” (ACS Chemical Neuroscience, 2023).
Where two headings read alike, the source gives them in different places.

What was measured:
[1] = molecular target: T1, human wild-type α2CR (Homo sapiens, UniProt P18825); assay: Radioligand binding with [3H]rauwolscine (competition and saturation), membranes of transfected HEK293 cells; design: host or cells: mouse connective-tissue cells stably expressing the receptor
T1 sequence (P18825 1-462): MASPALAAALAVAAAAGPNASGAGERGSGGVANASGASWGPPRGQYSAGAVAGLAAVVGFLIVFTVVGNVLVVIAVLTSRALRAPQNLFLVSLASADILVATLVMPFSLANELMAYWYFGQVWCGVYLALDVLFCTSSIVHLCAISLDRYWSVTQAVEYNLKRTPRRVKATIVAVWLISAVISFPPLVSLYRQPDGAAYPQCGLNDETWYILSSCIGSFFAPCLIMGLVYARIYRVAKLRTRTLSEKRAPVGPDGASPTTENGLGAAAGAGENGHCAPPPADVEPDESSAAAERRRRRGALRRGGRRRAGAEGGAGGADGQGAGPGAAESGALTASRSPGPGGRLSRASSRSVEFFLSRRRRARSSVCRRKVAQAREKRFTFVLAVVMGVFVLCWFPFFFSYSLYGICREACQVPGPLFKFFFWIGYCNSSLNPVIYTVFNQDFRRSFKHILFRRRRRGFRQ

[2] = molecular target: T2, human wild-type α2AR (Homo sapiens, UniProt P08913); assay: as above; design: host or cells: mouse connective-tissue cells stably expressing the receptor
T2 sequence (P08913 1-465): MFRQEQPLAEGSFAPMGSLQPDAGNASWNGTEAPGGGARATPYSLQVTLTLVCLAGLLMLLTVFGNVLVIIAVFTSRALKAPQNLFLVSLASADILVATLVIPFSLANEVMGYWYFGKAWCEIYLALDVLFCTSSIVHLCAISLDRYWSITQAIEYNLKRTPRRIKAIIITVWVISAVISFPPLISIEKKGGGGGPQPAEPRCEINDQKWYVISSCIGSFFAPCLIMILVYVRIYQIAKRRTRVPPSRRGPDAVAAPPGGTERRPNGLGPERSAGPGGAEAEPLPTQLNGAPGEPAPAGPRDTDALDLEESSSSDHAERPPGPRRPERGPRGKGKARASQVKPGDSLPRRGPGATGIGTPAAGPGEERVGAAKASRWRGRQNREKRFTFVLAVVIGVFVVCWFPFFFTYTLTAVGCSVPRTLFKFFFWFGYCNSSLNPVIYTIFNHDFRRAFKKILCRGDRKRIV

[3] = molecular target: T2, human wild-type α2AR; assay: cAMP accumulation, LANCE Ultra cAMP TR-FRET immunoassay, cells stably expressing α2AR; conditions: for functional activity at the α2AR (in words): cAMP formation
Method: (§1) Lofexidine was chosen as the reference ligand due to its ongoing use in in vivo studies evaluating 5-SATs for alleviation of opioid withdrawal symptoms.
(§2) Percent change in cAMP over forskolin-stimulated baseline was determined, and then normalized as a function of the percent change stimulated by lofexidine.
(§3) Receptor-mediated inhibition or stimulation of adenylyl cyclase was measured in cells stably expressing either α2AR or α2CR a LANCE Ultra cAMP assay kit (PerkinElmer, Waltham, MA), a time-resolved fluorescence energy transfer (TR-FRET) immunoassay, in a manner consistent with the manufacturer’s recommendations. Minor modifications were made to optimize conditions. […] Each concentration of ligand was applied in triplicate to the cells. A forskolin concentration of 600 nM was applied to the cells to generate a baseline, with the concentration chosen to accommodate the assay window. Cells were incubated for 30 min at 37 °C (α2AR assays) and for 2 h at room temperature (α2CR assays); time was chosen based on optimization-determined ideal conditions and activation kinetics.[59] Cells were then lysed and incubated with Eu-chelated tracer and Ulight anti-cAMP for 1 h. […] The concentration of cAMP present in each well was interpolated from this curve using the raw fluorescence value.

[4] = molecular target: T1, human wild-type α2CR; assay: cAMP accumulation, LANCE Ultra cAMP TR-FRET immunoassay, cells stably expressing α2CR; conditions: for functional activity at the α2CR (in words): cAMP formation
Method: as §1, §2, §3

[5] = molecular target: T1, human wild-type α2CR; assay: Radioligand binding with [3H]rauwolscine (competition and saturation), membranes of transfected HEK293 cells; design: host or cells: mouse connective-tissue cells stably expressing the receptor; conditions: [3H]rauwolscine competition, mean ± SD, read-out: Affinity (Ki ± SD; nM) α2CR
Method: Cells were grown in 10-cm plates and allowed to reach log growth phase (equivalent to about 70–90% confluency) before transfection. A transfection cocktail containing 3 mL of Opti-MEM (Gibco, Waltham, MA), 10 μg of cDNA, and 30 μL of linear polyethyleneimine “max” (molecular weight ∼ 40 000 g/mol, Polysciences Inc., Warrington, PA) was added to each plate and then incubated with an additional 3 mL of supplemented MEM for 48 h. Human wild-type α2-adrenergic GPCR clones, encoded in a pcDNA3.1(+) vector, were obtained from the cDNA Resource Center (Bloomsburg, PA). Cells were transiently transfected to express the α2AR or α2CR, and membranes were isolated for use in radioligand binding assays.
Cell membrane isolates were obtained following transfection procedure via a series of three 10-min, 12000g centrifugations homogenized via a tissue grinder. Saturation and competitive radioligand displacement assays conducted in 96-well assay plates were performed using membrane isolates. The bicinchoninic acid (BCA) protein assay (Thermo Scientific) kit was used to quantify protein expression.
Each concentration was assessed in quadruplicate, and each competitive binding assay was performed in at least three distinct replicates. Nonspecific binding was determined using 10 μM clozapine. Data were analyzed using the nonlinear regression function “One-site-Fit Ki” in Prism, wherein the Ki was calculated from the experimentally derived IC50 via the Cheng–Prusoff equation[58] [drawing 1]

[6] = test system: rodents; conditions: cited from earlier work
[7] = test system: mouse models of autism spectrum disorder (ASD); design: method as in PMID 32566916, PMID 26011730, PMID 36473166; conditions: orally active; cited from earlier work
[8] = read-out: Emax α2AR, percent maximum response normalized to lofexidine, mean ± SD, NC = no significant change from forskolin-established baseline signaling
[9] = [3H]rauwolscine competition, HEK293 membranes, mean ± SD, read-out: Affinity (Ki ± SD; nM) α2AR

SMILES	Ki [1] [µM]	Ki [2] [nM]	IC50 [4] [µM]	functional activity at the α2CR (in words) [4]	other results
CN(C)[C@@H]1CCc2c(cccc2-c2ccccc2F)C1 [(R)-2, (R)-5-(2-Fluorophenyl)-N,N-dimethyl-1,2,3,4-tetrahydronaphthalen-2-amine]	0.68 ± 0.12	2500 ± 810	–	–	–
CN(C)[C@H]1CCc2c(cccc2-c2ccccc2Cl)C1 [(S)-3]	0.017 ± 0.0041	5.1 ± 0.52	0.13 ± 0.0024	inverse agonists	EC50 [3]: 0.0013 ± 0.00018 µM; Emax [3, 8]: 47 ± 2.9%
CN(C)[C@H]1CCc2c(cccc2-c2cccs2)C1 [(S)-9]	0.048 ± 0.00057	6.2 ± 1.5	–	neutral antagonist	functional activity at the α2AR (in words) [3]: no significant change over baseline; fold higher affinity compared to the FAT compound at α2AR [2]: 5–10 fold
CN(C)[C@H]1CCc2c(cccc2-c2ccccc2)C1 [(S)-1]	0.035 ± 0.0046	6.9 ± 1.8	0.37 ± 0.0019	inverse agonism	EC50 [3]: 0.0014 ± 0.00023 µM; functional activity at the α2AR (in words) [3]: agonist activity; Emax α2AR ([3]; percent maximum response normalized to lofexidine, mean ± SD, NC = no significant change from forskolin-established baseline signaling, listed as 1 (5-PAT)): 24 ± 4.0%; Emax [3, 8]: ~25%
Fc1ccccc1-c1cccc2c1CC[C@H](N1CCCC1)C2 [(S)-4, (S)-1-(5-(2-Fluorophenyl)-1,2,3,4-tetrahydronaphthalen-2-yl)pyrrolidine]	–	–	0.048 ± 0.0018	inverse agonists	EC50 [3]: 0.0011 ± 0.00016 µM; Emax ([3]; read-out: Emax α2AR): 46 ± 3%; fold higher potency than 5-PAT at the α2CR ([4]; inverse agonist potency): about 9 fold; fold higher potency than CPT at the α2CR ([4]; inverse agonist potency): ~3 fold; fold higher potency than FPT at the α2CR ([4]; inverse agonist potency): about 2 fold; Ki [5]: 5.2 ± 0.3 nM; Ki [2, 9]: 5.7 ± 1.4 nM
CN(C)[C@@H]1CCc2c(cccc2-c2cccn2C)C1 [(R)-10]	0.31 ± 0.039	130 ± 33	–	–	–
CN(C)[C@@H]1CCc2c(cccc2-c2ccco2)C1 [(R)-8]	0.46 ± 0.072	1300 ± 330	–	–	–
CCCN(CCC)[C@H]1CCc2c(cccc2-c2ccccc2)C1 [(S)-5]	0.37 ± 0.014	180 ± 19	–	–	–
CN(C)[C@H]1CCc2c(cccc2-c2ccco2)C1 [(S)-8]	0.15 ± 0.0035	59 ± 1.4	–	–	–
CC(Oc1c(Cl)cccc1Cl)C1=NCCN1 (centres unmarked) [Lofexidine, reference compound]	–	–	–	agonist	EC50 [4]: 0.0049 ± 0.0012 µM; Emax ([4]; read-out: Emax α2CR): 100 ± 3.4%; Ki [5]: 22 ± 4.6 nM
CN(C)[C@@H]1CCc2c(cccc2-c2ccccc2Cl)C1 [(R)-3]	0.5 ± 0.086	490 ± 65	–	–	–
CN(C)[C@H]1CCc2c(cccc2-c2cccc3ccccc23)C1 [(S)-7]	0.18 ± 0.038	27 ± 6.3	0.26 ± 0.044	inverse agonism	EC50 [3]: 0.082 ± 0.0083 µM; fold less potent than FPT at the α2AR ([3]; agonist potency): 150 fold; functional activity at the α2AR (in words) [3]: agonist activity; Emax [3, 8]: 14 ± 4.3%; fold less efficacious than the other 5-SATs at the α2CR ([4]; inverse agonist efficacy): roughly 2 fold
CCCN(CCC)[C@@H]1CCc2c(cccc2-c2ccccc2)C1 [(R)-5]	0.58 ± 0.054	190 ± 30	–	–	–
Fc1ccccc1-c1cccc2c1CC[C@@H](N1CCCC1)C2 [(R)-4, (R)-1-(5-(2-Fluorophenyl)-1,2,3,4-tetrahydronaphthalen-2-yl)pyrrolidine]	–	–	–	–	Ki [5]: 1500 ± 270 nM; Ki [2, 9]: 1000 ± 170 nM
CCCN(CCC)[C@H]1CCc2c(cccc2-c2ccccc2Cl)C1 [(S)-6]	0.28 ± 0.02	67 ± 11	–	–	–
CN(C)[C@H]1CCc2c(cccc2-c2ccccc2F)C1 [(S)-2, (2S)-5-(2′-fluorophenyl)-N,N-dimethyl-1,2,3,4-tetrahydronaphthalen-2-amine]	0.019 ± 0.0046	3.5 ± 0.97	0.079 ± 0.0017	inverse agonists	EC50 [3]: 0.00055 ± 0.00015 µM; Emax [3, 8]: 45 ± 1.9%; effect on locomotor activity (in words) [6]: did not impact locomotor activity; effect in mouse models of autism spectrum disorder (in words) [7]: improves repetitive behaviors, social behaviors, anxiety behaviors, and ameliorates seizures
CN(C)[C@@H]1CCc2c(cccc2-c2ccccc2)C1 [(R)-1]	0.5 ± 0.075	320 ± 40	–	–	–
CCCN(CCC)[C@@H]1CCc2c(cccc2-c2ccccc2Cl)C1 [(R)-6]	0.34 ± 0.095	94 ± 26	–	–	–
CN(C)[C@H]1CCc2c(cccc2-c2cccn2C)C1 [(S)-10]	0.05 ± 0.0041	12 ± 0.41	0.092 ± 0.0059	–	IC50 [3]: 0.011 ± 0.00026 µM; functional activity at the α2AR (in words) [3]: inverse agonist; fold higher affinity compared to the FAT compound at α2AR [2]: 5–10 fold
